These are literature values, as cited in patent publication US9226944B2, “Herbal preparation for sleep apnea relief” (priority 2008, dated 2016).

For the data set the following is noted: combined with the plant vs freed from the other constituents; heat accelerates decomposition.

As to `CN1C(CC(=O)c2ccccc2)CCCC1CC(O)c1ccccc1` (stereo not shown) [Lobeline, 2-[6-(2-hydroxy-2-phenyl-ethyl)-1-methyl-2-piperidyl]-1-phenyl-ethanone], the stability of lobeline entry is on record as “decomposes when freed from contact with the other constituents of the plant”.
